Test results from PMC11594562, “Novel Peptide–Drug Conjugates with Dual Anticancer Activity” (International Journal of Molecular Sciences, 2024).
Where two headings read alike, the source gives them in different places. Residues, ends and D or L forms follow the SMILES beside them.

Experiments:
[1] = target: Tyrosyl-DNA-phosphodiesterase 1 (TDP1); details: Figure 1; cited from earlier work
T98G glioblastoma cells = assay: MTT cytotoxicity assay, T98G cells; details: T98G, 48 h; for GI50: Homo sapiens, read-out: Cytotoxic dose GI50; for Cytotoxic dose GI80 / Cytotoxic dose GI90: MTT
Experimental: (§1) Next, the conjugates and their parent agents were evaluated in a cytotoxicity assay. Human glioblastoma (SNB19, T98G) and adenocarcinoma (MCF-7) cell lines were used in this study.
(§2) Human cancer cells of the SNB19, T98G (cells of human glioblastoma), and MCF-7 (adenocarcinoma) lines, along with cells derived from the kidney of an African green monkey (Vero), were used in this study. These cell lines were obtained from the cell collection of the State Research Center for Virology and Biotechnology “Vector” of Rospotrebnadzor, Koltsovo, Novosibirsk Region. They were cultured in DMEM/F12 medium containing 10% foetal bovine serum, L-glutamine (2 mmol/L), and gentamicin (80 µg/mL) in a CO2 incubator at 37 °C. The tested compounds were dissolved in DMSO (4 and 5) or H2O (6, 7, and 8) and added to the cellular culture at the required concentrations. Three wells were used for each concentration. The cells that were incubated without the compounds were used as controls. Cells were placed in 96-well microplates and cultivated at 37 °C in 5% CO2/95% air for 48 h. The cell viability was assessed through an MTT [3-(4,5-dimethylthiazol-2-yl)-2,5-phenyl-2H-tetrazolium bromide] conversion assay, where 1% MTT was added to each well. Four hours later, the medium was removed, leaving the formazan crystals, and isopropanol was added and mixed for 15 min. The optical density of the samples was measured on a TECAN Sunrise multi-well spectrophotometer at a wavelength of 570 nm, with a reference of 670 nm. The 50% cytotoxic dose (GI50) of each compound (i.e., the compound concentration that lowers the amount of cells to 50% in a culture, or decreases the optical density twofold as compared to the control wells) was calculated from the obtained data. Statistical processing of the results was performed using the Microsoft Excel-2007, […] 6.0, and GraphPad Prism 5.0 programs.

[2] = Solubility in water / DMSO; format: physicochemical; details: water vs DMSO
Source text: Three wells were used for each concentration.

SNB19 glioblastoma cells = assay: MTT cytotoxicity assay, SNB19 cells; details: for GI50: Homo sapiens, SNB-19, 48 h, read-out: Cytotoxic dose GI50; for Cytotoxic dose GI80 / Cytotoxic dose GI90: SNB19, 48 h, MTT
Experimental: as §1, §2

TDP1 = target: T1, TDP1 (Homo sapiens, UniProt Q9NUW8); assay: biochemical; format: biochemical; details: for Increase in TDP1 IC50 compared to parent TDP1 inhibitor: conjugate 7 vs 4, conjugate 8 vs 5
T1 construct: made in house; host or cells: E. coli
Experimental: These conjugates and their individual components were tested in a real-time fluorescent assay of TDP1 inhibition.
Recombinant TDP1 protein was expressed in E. coli (the pET 16B plasmid containing TDP1 cDNA was kindly provided by Dr. K.W. Caldecott, University of Sussex, United Kingdom) and isolated as described in [60]. The final volume (200 μL) of the reaction mixture contained TDP1 reaction buffer (50 mM Tris-HCl, pH 8.0, 50 mM NaCl, 7 mM β-mercaptoethanol), 50 nM oligonucleotide substrate, and varied concentrations of the tested compounds. Purified TDP1 was added at a final concentration of 1.5 nM. The TDP1 reaction mixtures were incubated at a constant temperature of 26 °C in a POLARstar OPTIMA fluorimeter (BMG LABTECH, Offenburg, Germany). The fluorescence intensity was measured (Ex. 485/Em. 520 nm) every 1 min for 10 minutes. The efficiency of TDP1 inhibition was evaluated by comparing the rate of increase in the fluorescence of the biosensor in the presence of compound 4 or 5 to that of DMSO (1.5%) in control wells. IC50 values were determined using an eleven-point concentration response curve by MARS Data Analysis 2.0 (BMG LABTECH), and the slope during the linear phase was calculated. The IC50 measurements were carried out in at least three independent experiments.

[3] = MTT cytotoxicity assay, non-malignant Vero cells; details: African green monkey
Source text: (§3) Against the T98G glioblastoma cells, the conjugation yields activities that are intermediate between those of the usnic acid and peptide components for both the hydrazinothiazole- and benzylidenefuranone-based candidates (4 and 5, respectively).
as §2

Vero cells = assay: MTT cytotoxicity assay, non-malignant Vero cells; details: Vero, 48 h, MTT
Source text: as §3, §2

[4] = test system: MCF-7 (adenocarcinoma) cells; assay: MTT cytotoxicity assay, MCF-7 cells; details: for GI50: Homo sapiens, MCF7, 48 h, read-out: Cytotoxic dose GI50; for Cytotoxic dose GI80 / Cytotoxic dose GI90: MCF-7, 48 h, MTT
Experimental: as §1, §2

[5] = MTT cytotoxicity assay, T98G cells; details: human
Experimental: as §1, §2

[6] = MTT cytotoxicity assay, SNB19 cells; details: human, SNB19 glioblastoma cells
Experimental: as §1, §2

[7] = MTT cytotoxicity assay, MCF-7 cells; details: human, MCF-7 adenocarcinoma cells
Experimental: as §1, §2

MCF-7 cells = details: native L-K6 sequence; read-out: IC50 (cytotoxicity of native sequence); cited from earlier work
[8] = Vero cells (non-malignant kidney cell line)
[9] = recombinant TDP1 1.5 nM, 50 nM substrate, 26 °C

T1 sequence (Q9NUW8 whole entry): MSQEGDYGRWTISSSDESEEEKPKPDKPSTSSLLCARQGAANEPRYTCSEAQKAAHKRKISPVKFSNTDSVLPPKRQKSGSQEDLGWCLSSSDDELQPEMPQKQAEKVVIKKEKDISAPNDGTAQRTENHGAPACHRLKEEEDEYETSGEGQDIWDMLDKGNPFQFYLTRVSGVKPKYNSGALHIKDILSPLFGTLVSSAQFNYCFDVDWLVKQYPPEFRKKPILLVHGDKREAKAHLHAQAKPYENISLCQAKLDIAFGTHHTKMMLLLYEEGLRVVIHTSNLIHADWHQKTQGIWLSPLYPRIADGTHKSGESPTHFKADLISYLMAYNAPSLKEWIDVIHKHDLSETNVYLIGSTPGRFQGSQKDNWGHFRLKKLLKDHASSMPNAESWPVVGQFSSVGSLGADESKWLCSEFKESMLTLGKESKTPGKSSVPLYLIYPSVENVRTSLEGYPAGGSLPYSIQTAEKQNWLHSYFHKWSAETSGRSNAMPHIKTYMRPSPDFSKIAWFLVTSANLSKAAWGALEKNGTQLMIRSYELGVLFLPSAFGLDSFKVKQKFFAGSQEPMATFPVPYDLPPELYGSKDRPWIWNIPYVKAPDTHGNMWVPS

CC(=O)c1c(O)c(C)c(O)c2c1OC1=CC(=O)/C(=C(/C)NCCCc3cc(C(C)(C)C)c(O)c(C(C)(C)C)c3)C(=O)[C@@]12C [Compound 2, reference compound]
IC50 [1]: 0.16 µM

CC(=O)C1=C(O)C=C2Oc3c(C(=O)CSC#N)c(O)c(C)c(O)c3[C@@]2(C)C1=O [Compound 3, reference compound]
IC50 [1]: 1.16 µM

CC(=O)C1=C(O)C=C2Oc3c(-c4csc(N/N=C/c5ccc(Br)cc5)n4)c(O)c(C)c(O)c3[C@@]2(C)C1=O [Compound 4]
IC50 [1]: 0.026 µM
GI50 (T98G glioblastoma cells): 10.1 ± 0.67 µM
Cytotoxic dose GI80 (T98G glioblastoma cells): 51 ± 1.08 µM
Cytotoxic dose GI90 (T98G glioblastoma cells): 90 ± 3.94 µM
Solubility [2]: require DMSO for solubility
GI50 (SNB19 glioblastoma cells): 20.5 ± 2.27 µM
Cytotoxic dose GI80 (SNB19 glioblastoma cells): 61 ± 1.78 µM
Cytotoxic dose GI90 (SNB19 glioblastoma cells): 83 ± 1.87 µM
IC50 (TDP1): 0.026 ± 0.011 µM
GI50 at 48 h [3, 8]: 4.1 ± 1.66 µM
Cytotoxic dose GI80 (Vero cells): 48 ± 16.76 µM
Cytotoxic dose GI90 (Vero cells): >100 µM
GI50 [4]: 2.8 ± 0.07 µM
Cytotoxic dose GI80 [4]: 4.7 ± 0.21 µM
Cytotoxic dose GI90 [4]: 5.5 ± 0.41 µM

CC(=O)C1=C(O)C=C2Oc3c4c(c(C)c(O)c3[C@@]2(C)C1=O)O/C(=C\c1ccc(Br)cc1)C4=O [Compound 5]
IC50 [1]: 0.15 µM
GI50 (T98G glioblastoma cells): 21 ± 2.6 µM
Cytotoxic dose GI80 (T98G glioblastoma cells): >100 µM
Cytotoxic dose GI90 (T98G glioblastoma cells): >100 µM
Solubility [2]: require DMSO for solubility
GI50 (SNB19 glioblastoma cells): > 100 µM
Cytotoxic dose GI80 (SNB19 glioblastoma cells): >100 µM
Cytotoxic dose GI90 (SNB19 glioblastoma cells): >100 µM
IC50 (TDP1; [9]): 0.15 ± 0.03 µM
GI50 at 48 h [3, 8]: > 100 µM
Cytotoxic dose GI80 (Vero cells): >100 µM
Cytotoxic dose GI90 (Vero cells): >100 µM
GI50 [4]: 2.2 ± 0.31 µM
Cytotoxic dose GI80 [4]: 3.9 ± 0.87 µM
Cytotoxic dose GI90 [4]: 4.7 ± 1.59 µM

CC[C@H](C)[C@H](NC(=O)CNN)C(=O)N[C@@H](CCCCN)C(=O)N[C@@H](CCCCN)C(=O)N[C@H](C(=O)N[C@@H](CC(C)C)C(=O)N[C@@H](CO)C(=O)N[C@@H](CCCCN)C(=O)N[C@H](C(=O)N[C@@H](CCCCN)C(=O)N[C@@H](CCCCN)C(=O)N[C@@H](CC(C)C)C(=O)N[C@@H](CC(C)C)C(=O)N[C@@H](CCCCN)C(N)=O)[C@@H](C)CC)[C@@H](C)CC [Compound 6] (HELM PEPTIDE1{[NNCC(=O)[*:2]].I.K.K.I.L.S.K.I.K.K.L.L.K.[am]}$$$$V2.0)
Cytotoxic dose GI80 (T98G glioblastoma cells): >100 µM
Cytotoxic dose GI90 (T98G glioblastoma cells): >100 µM
GI50 at 48 h [5]: > 100 µM
GI50 at 48 h [6]: > 100 µM
Cytotoxic dose GI80 (SNB19 glioblastoma cells): >100 µM
Cytotoxic dose GI90 (SNB19 glioblastoma cells): >100 µM
IC50 (TDP1; [9]): 1.8 ± 0.6 µM
GI50 at 48 h ([3]; Vero cells): 64 ± 13.7 µM
Cytotoxic dose GI80 (Vero cells): >100 µM
Cytotoxic dose GI90 (Vero cells): >100 µM
Cytotoxic dose GI80 [4]: 81 ± 16 µM
Cytotoxic dose GI90 [4]: >100 µM
GI50 at 48 h [7]: 39 ± 6.08 µM

CC[C@H](C)[C@H](NC(=O)Cn1nc(C)c2c1C=C1Oc3c(-c4csc(N/N=C/c5ccc(Br)cc5)n4)c(O)c(C)c(O)c3[C@@]1(C)C2=O)C(=O)N[C@@H](CCCCN)C(=O)N[C@@H](CCCCN)C(=O)N[C@H](C(=O)N[C@@H](CC(C)C)C(=O)N[C@@H](CO)C(=O)N[C@@H](CCCCN)C(=O)N[C@H](C(=O)N[C@@H](CCCCN)C(=O)N[C@@H](CCCCN)C(=O)N[C@@H](CC(C)C)C(=O)N[C@@H](CC(C)C)C(=O)N[C@@H](CCCCN)C(N)=O)[C@@H](C)CC)[C@@H](C)CC [Compound 7] (HELM PEPTIDE1{[Cc1nn(CC(=O)[*:2])c2c1C(=O)[C@@]1(C)C(=C2)Oc2c(-c3csc(N/N=C/c4ccc(Br)cc4)n3)c(O)c(C)c(O)c21].I.K.K.I.L.S.K.I.K.K.L.L.K.[am]}$$$$V2.0)
Cytotoxic dose GI80 (T98G glioblastoma cells): 82 ± 1.78 µM
Cytotoxic dose GI90 (T98G glioblastoma cells): >100 µM
GI50 at 48 h [5]: 42 ± 3.02 µM
GI50 at 48 h [6]: 18 ± 0.35 µM
Cytotoxic dose GI80 (SNB19 glioblastoma cells): 68 ± 3.34 µM
Cytotoxic dose GI90 (SNB19 glioblastoma cells): >100 µM
Increase in TDP1 IC50 compared to parent TDP1 inhibitor (TDP1): approximately 6.5 fold
GI50 at 48 h ([3]; Vero cells): 33 ± 3.53 µM
Cytotoxic dose GI80 (Vero cells): >100 µM
Cytotoxic dose GI90 (Vero cells): >100 µM
Cytotoxic dose GI80 [4]: >100 µM
Cytotoxic dose GI90 [4]: >100 µM
GI50 at 48 h [7]: 65 ± 15.3 µM

CC[C@H](C)[C@H](NC(=O)Cn1nc(C)c2c1C=C1Oc3c4c(c(C)c(O)c3[C@@]1(C)C2=O)O/C(=C\c1ccc(Br)cc1)C4=O)C(=O)N[C@@H](CCCCN)C(=O)N[C@@H](CCCCN)C(=O)N[C@H](C(=O)N[C@@H](CC(C)C)C(=O)N[C@@H](CO)C(=O)N[C@@H](CCCCN)C(=O)N[C@H](C(=O)N[C@@H](CCCCN)C(=O)N[C@@H](CCCCN)C(=O)N[C@@H](CC(C)C)C(=O)N[C@@H](CC(C)C)C(=O)N[C@@H](CCCCN)C(N)=O)[C@@H](C)CC)[C@@H](C)CC [Compound 8] (HELM PEPTIDE1{[Cc1nn(CC(=O)[*:2])c2c1C(=O)[C@@]1(C)C(=C2)Oc2c3c(c(C)c(O)c21)O/C(=C\c1ccc(Br)cc1)C3=O].I.K.K.I.L.S.K.I.K.K.L.L.K.[am]}$$$$V2.0)
Cytotoxic dose GI80 (T98G glioblastoma cells): 80 ± 2.86 µM
Cytotoxic dose GI90 (T98G glioblastoma cells): >100 µM
GI50 at 48 h [5]: 38 ± 1.22 µM
GI50 at 48 h [6]: 16.5 ± 0.35 µM
GI50 at 48 h ([6]; Cytotoxic dose GI50, SNB19, 48 h, MTT): 16 µM
Cytotoxic dose GI80 (SNB19 glioblastoma cells): 56 ± 0.7 µM
Cytotoxic dose GI90 (SNB19 glioblastoma cells): 85 ± 2.32 µM
Increase in TDP1 IC50 compared to parent TDP1 inhibitor (TDP1): ~2.3 fold
GI50 at 48 h ([3]; Vero cells): 18 ± 3.18 µM
Cytotoxic dose GI80 (Vero cells): >100 µM
Cytotoxic dose GI90 (Vero cells): >100 µM
Cytotoxic dose GI80 [4]: 72 ± 2.4 µM
Cytotoxic dose GI90 [4]: >100 µM
GI50 at 48 h [7]: 36 ± 1.24 µM

L-K6 (IKKILSKIKKLLK; HELM PEPTIDE1{[NNCC(=O)[*:2]].I.K.K.I.L.S.K.I.K.K.L.L.K.[am]}$$$$V2.0; N-terminus assumed; SMILES CC[C@H](C)[C@H](NC(=O)CNN)C(=O)N[C@@H](CCCCN)C(=O)N[C@@H](CCCCN)C(=O)N[C@H](C(=O)N[C@@H](CC(C)C)C(=O)N[C@@H](CO)C(=O)N[C@@H](CCCCN)C(=O)N[C@H](C(=O)N[C@@H](CCCCN)C(=O)N[C@@H](CCCCN)C(=O)N[C@@H](CC(C)C)C(=O)N[C@@H](CC(C)C)C(=O)N[C@@H](CCCCN)C(N)=O)[C@@H](C)CC)[C@@H](C)CC)
IC50 (MCF-7 cells): 23 µM
